Data on three compounds can be found in US4604236A, “Calcitonin analogs” (priority 1985, dated 1986).

Assay [1] relates to serum calcium concentration. Kind of assay: Biological assay of calcitonin analogs in vivo: reduction of serum calcium concentration versus salmon calcitonin standard, 2×2 parallel line assay. Also on record: species or system Rats. As to conditions: standard used in the assay, independently determined. On the procedure:
The biological potency of des-13-serine-salmon calcitonin was determined by comparing the reduction of serum calcium concentration which followed administration by graded doses of des-Ser^13 -SCT and synthetic salmon calcitonin standard. Rats were divided into four groups of seven animals, and each group was assigned at random to a dose of standard or test solution. Low and high doses were chosen from the linear portion of the dose-response curve. For the salmon calcitonin standard, the values were 0.7 and 2.1 ng. peptide/100 g. body weight (BW). This dose approximates 3 and 9 MU/100 g. BW. Peptides were given by subcutaneous injection (0.2 ml/100 g. BW) and blood was withdrawn 1 hour later for serum calcium determination. Sera are processed and analyzed within two hours of collection. […]. Results were analyzed by a 2×2 parallel line assay [Gaddum, J. H., J. Pharm. Pharmacol., 6, 345 (1953)]. The standard salmon calcitonin used was independently determined to contain greater than 4,000 IU/mg. des-Ser^13 -SCT assayed at 4650 IU/mg.

For assay [2] the following is noted: literature values; cited from earlier work.

Take `CC(C)C[C@H](NC(=O)[C@H](CCCCN)NC(=O)CNC(=O)[C@H](CC(C)C)NC(=O)[C@@H](NC(=O)[C@@H]1CSSC[C@H](N)C(=O)N[C@@H](CO)C(=O)N[C@@H](CC(N)=O)C(=O)N[C@@H](CC(C)C)C(=O)N[C@@H](CO)C(=O)N[C@@H]([C@@H](C)O)C(=O)N1)C(C)C)C(=O)N[C@@H](CO)C(=O)N[C@@H](CCC(N)=O)C(=O)N[C@@H](CCC(=O)O)C(=O)N[C@@H](CC(C)C)C(=O)N[C@@H](Cc1c[nH]cn1)C(=O)N[C@@H](CCCCN)C(=O)N[C@@H](CC(C)C)C(=O)N[C@@H](CCC(N)=O)C(=O)N[C@H](C(=O)N[C@@H](Cc1ccc(O)cc1)C(=O)N1CCC[C@H]1C(=O)N[C@@H](CCCNC(=N)N)C(=O)N[C@H](C(=O)N[C@@H](CC(N)=O)C(=O)N[C@H](C(=O)NCC(=O)N[C@@H](CO)C(=O)NCC(=O)N[C@H](C(=O)N1CCC[C@H]1C(N)=O)[C@@H](C)O)[C@@H](C)O)[C@@H](C)O)[C@@H](C)O` [standard salmon calcitonin, salmon calcitonin]: in assay [1], the “potency content of the standard salmon calcitonin” value was “greater than 4,000 IU/mg”.
For the compound “(1,7-α-L-aminosuberic acid)eel calcitonin”, in assay [2], the hypocalcemic potency result is reported as “about 3400 IU/mg”.
As for “eel calcitonin [synthetic eel calcitonin]”, the hypocalcemic potency entry in assay [2] is “around 4300 IU/mg”.
